Measured values published in ChEMBL document CHEMBL4507318, “Data for DCP probe BAY-985” (2021).

Columns and labels:
[1] = target: Mitogen-activated protein kinase 8 (Homo sapiens) (UniProt P45983)
[2] = tested on: Hepatocyte growth factor receptor (Homo sapiens), P08581 [M1250T]
[3] = target: Casein kinase I isoform gamma-1 (Homo sapiens) (UniProt Q9HCP0)
[4] = target: Cyclin-G-associated kinase (Homo sapiens) (UniProt O14976)
[5] = target: Phosphatidylinositol 4,5-bisphosphate 3-kinase catalytic subunit gamma isoform (Homo sapiens) (UniProt P48736)
[6] = target: Cyclin-dependent kinase 8 (Homo sapiens) (UniProt P49336)
[7] = tested on: Phosphatidylinositol 4,5-bisphosphate 3-kinase catalytic subunit alpha isoform (Homo sapiens), P42336 [H1047L]
[8] = target: Serine/threonine-protein kinase SIK2 (Homo sapiens) (UniProt Q9H0K1)
[9] = tested on: Proto-oncogene tyrosine-protein kinase receptor Ret (Homo sapiens), P07949 [M918T]
[10] = tested on: Epidermal growth factor receptor (Homo sapiens), P00533 [UNDEFINED MUTATION]
[11] = target: Histamine H4 receptor (Homo sapiens) (UniProt Q9H3N8); conditions: Compound concentration 10.0 uM
[12] = species on record: Rattus norvegicus; conditions: Compound concentration 10.0 uM
[13] = target: Casein kinase I isoform alpha-like (Homo sapiens) (UniProt Q8N752)
[14] = tested on: Tyrosine-protein kinase ABL1 (Homo sapiens), P00519 [Y253F]
[15] = target: Serine/threonine-protein kinase Chk1 (Homo sapiens) (UniProt O14757)
[16] = target: Serine/threonine-protein kinase SIK3 (Homo sapiens) (UniProt Q9Y2K2)
[17] = tested on: Tyrosine-protein kinase ABL1 (Homo sapiens), P00519 [F317I]
[18] = target: ALK tyrosine kinase receptor (Homo sapiens) (UniProt Q9UM73)
[19] = target: Ribosomal protein S6 kinase alpha-3 (Homo sapiens) (UniProt P51812)
[20] = target: Casein kinase I isoform gamma-3 (Homo sapiens) (UniProt Q9Y6M4)
[21] = target: Mitogen-activated protein kinase 7 (Homo sapiens) (UniProt Q13164)
[22] = tested on: Epidermal growth factor receptor (Homo sapiens), P00533 [L858R]
[23] = target: Casein kinase I isoform gamma-2 (Homo sapiens) (UniProt P78368)
[24] = target: Serine/threonine-protein kinase 24 (Homo sapiens) (UniProt Q9Y6E0)
[25] = target: Muscarinic acetylcholine receptor M3 (Homo sapiens) (UniProt P20309); conditions: Compound concentration 10.0 uM
[26] = target: Serine/threonine-protein kinase Nek10 (Homo sapiens) (UniProt Q6ZWH5)
[27] = target: Alpha-1B adrenergic receptor (Homo sapiens) (UniProt P35368); conditions: Compound concentration 10.0 uM
[28] = tested on: Phosphatidylinositol 4,5-bisphosphate 3-kinase catalytic subunit alpha isoform (Homo sapiens), P42336 [M1043I]
[29] = target: Discoidin domain-containing receptor 2 (Homo sapiens) (UniProt Q16832)
[30] = target: Phosphatidylinositol 5-phosphate 4-kinase type-2 gamma (Homo sapiens) (UniProt Q8TBX8)
[31] = target: Cyclin-dependent kinase 16 (Homo sapiens) (UniProt Q00536)
[32] = target: Cyclin-dependent kinase 4 (Homo sapiens) (UniProt P11802)
[33] = target: Serine/threonine-protein kinase LATS2 (Homo sapiens) (UniProt Q9NRM7)
[34] = target: Phosphatidylinositol 4,5-bisphosphate 3-kinase catalytic subunit delta isoform (Homo sapiens) (UniProt O00329)
[35] = target: AP2-associated protein kinase 1 (Homo sapiens) (UniProt Q2M2I8)
[36] = target: Cytoplasmic tyrosine-protein kinase BMX (Homo sapiens) (UniProt P51813)
[37] = target: Calcium/calmodulin-dependent protein kinase type II subunit beta (Homo sapiens) (UniProt Q13554)
[38] = target: Membrane-associated tyrosine- and threonine-specific cdc2-inhibitory kinase (Homo sapiens) (UniProt Q99640)
[39] = target: Serine/threonine-protein kinase N2 (Homo sapiens) (UniProt Q16513)
[40] = target: Dual specificity protein kinase CLK1 (Homo sapiens) (UniProt P49759)
[41] = target: Serine/threonine-protein kinase Nek9 (Homo sapiens) (UniProt Q8TD19)
[42] = target: Serine/threonine-protein kinase NIM1 (Homo sapiens) (UniProt Q8IY84)
[43] = target: Uncharacterized serine/threonine-protein kinase SBK3 (Homo sapiens) (UniProt P0C264)
[44] = target: Inhibitor of nuclear factor kappa-B kinase subunit epsilon (Homo sapiens) (UniProt Q14164)
[45] = target: Calcium/calmodulin-dependent protein kinase type 1B (Homo sapiens) (UniProt Q6P2M8)
[46] = Compound concentration 1000.0 nM
[47] = Compound concentration 100.0 nM

Chain of Muscarinic acetylcholine receptor M3 (Homo sapiens) (P20309 whole entry, looked up): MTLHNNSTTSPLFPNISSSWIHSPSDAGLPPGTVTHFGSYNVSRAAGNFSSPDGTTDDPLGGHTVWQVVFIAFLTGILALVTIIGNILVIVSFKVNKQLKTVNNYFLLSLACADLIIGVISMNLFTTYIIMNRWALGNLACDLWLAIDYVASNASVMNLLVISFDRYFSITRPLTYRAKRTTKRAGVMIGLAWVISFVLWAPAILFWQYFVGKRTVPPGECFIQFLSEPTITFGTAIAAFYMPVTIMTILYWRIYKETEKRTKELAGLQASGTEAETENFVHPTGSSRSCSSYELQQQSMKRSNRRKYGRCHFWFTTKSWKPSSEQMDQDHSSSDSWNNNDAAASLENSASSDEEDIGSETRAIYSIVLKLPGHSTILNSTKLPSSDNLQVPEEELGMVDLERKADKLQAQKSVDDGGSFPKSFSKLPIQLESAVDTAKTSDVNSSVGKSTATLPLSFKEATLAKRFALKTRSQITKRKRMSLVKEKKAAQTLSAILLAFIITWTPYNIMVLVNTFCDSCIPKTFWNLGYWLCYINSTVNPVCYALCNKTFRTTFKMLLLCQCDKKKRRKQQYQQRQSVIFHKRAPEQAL
Chain of Histamine H4 receptor (Homo sapiens) (Q9H3N8 whole entry): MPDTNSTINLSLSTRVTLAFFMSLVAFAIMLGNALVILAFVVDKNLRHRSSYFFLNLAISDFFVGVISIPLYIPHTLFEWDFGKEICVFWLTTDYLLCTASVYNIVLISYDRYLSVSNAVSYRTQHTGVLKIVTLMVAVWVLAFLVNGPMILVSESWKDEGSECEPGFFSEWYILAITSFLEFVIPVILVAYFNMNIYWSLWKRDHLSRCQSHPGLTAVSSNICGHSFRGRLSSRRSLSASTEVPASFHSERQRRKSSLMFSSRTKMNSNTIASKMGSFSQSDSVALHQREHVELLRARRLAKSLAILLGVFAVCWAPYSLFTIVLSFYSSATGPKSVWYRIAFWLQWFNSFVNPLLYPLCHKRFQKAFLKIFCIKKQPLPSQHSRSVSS
Chain of ALK tyrosine kinase receptor (Homo sapiens) (Q9UM73 19-1620 limits assumed): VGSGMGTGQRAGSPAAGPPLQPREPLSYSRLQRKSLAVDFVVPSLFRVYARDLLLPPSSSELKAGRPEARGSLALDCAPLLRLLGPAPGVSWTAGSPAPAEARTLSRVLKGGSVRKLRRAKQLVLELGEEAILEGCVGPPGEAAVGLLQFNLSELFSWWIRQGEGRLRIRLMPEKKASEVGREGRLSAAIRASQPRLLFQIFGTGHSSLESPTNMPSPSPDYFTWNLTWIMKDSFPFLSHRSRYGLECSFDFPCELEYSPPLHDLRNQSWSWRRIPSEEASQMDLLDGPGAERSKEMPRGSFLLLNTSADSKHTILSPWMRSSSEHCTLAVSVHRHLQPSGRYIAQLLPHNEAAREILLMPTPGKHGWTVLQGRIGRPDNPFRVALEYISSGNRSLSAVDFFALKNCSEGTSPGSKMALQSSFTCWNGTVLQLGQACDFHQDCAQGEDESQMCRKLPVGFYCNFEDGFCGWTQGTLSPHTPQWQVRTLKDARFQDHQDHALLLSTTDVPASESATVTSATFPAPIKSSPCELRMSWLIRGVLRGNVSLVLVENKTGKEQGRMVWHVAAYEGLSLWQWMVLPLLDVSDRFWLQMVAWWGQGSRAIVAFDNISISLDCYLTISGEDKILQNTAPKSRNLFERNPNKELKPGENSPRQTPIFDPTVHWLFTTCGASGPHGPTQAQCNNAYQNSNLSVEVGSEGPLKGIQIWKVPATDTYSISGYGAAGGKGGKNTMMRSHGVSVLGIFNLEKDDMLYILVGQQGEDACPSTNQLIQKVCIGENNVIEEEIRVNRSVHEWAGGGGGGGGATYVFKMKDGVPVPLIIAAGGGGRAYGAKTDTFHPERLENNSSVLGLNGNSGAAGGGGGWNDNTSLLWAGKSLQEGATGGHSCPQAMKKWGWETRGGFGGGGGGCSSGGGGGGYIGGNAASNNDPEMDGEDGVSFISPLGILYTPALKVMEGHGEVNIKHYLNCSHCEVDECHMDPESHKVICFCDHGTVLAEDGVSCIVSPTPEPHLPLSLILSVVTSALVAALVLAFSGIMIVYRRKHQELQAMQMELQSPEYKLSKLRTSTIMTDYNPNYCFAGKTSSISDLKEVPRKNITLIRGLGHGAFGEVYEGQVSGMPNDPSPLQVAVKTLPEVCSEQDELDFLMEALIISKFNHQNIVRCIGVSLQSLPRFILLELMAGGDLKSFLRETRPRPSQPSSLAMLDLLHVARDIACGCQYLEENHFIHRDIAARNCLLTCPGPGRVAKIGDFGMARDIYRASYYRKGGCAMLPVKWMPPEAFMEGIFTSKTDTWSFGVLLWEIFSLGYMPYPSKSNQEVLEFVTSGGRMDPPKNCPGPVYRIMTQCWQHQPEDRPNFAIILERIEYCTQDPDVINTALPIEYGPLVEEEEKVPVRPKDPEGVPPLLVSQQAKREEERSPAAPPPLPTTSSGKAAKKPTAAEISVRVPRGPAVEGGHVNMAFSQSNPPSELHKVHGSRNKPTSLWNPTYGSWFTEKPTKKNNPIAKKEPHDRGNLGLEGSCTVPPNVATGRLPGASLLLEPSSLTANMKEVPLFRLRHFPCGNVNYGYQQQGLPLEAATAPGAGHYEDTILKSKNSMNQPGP
Chain of Serine/threonine-protein kinase LATS2 (Homo sapiens) (Q9NRM7 whole entry, canonical isoform): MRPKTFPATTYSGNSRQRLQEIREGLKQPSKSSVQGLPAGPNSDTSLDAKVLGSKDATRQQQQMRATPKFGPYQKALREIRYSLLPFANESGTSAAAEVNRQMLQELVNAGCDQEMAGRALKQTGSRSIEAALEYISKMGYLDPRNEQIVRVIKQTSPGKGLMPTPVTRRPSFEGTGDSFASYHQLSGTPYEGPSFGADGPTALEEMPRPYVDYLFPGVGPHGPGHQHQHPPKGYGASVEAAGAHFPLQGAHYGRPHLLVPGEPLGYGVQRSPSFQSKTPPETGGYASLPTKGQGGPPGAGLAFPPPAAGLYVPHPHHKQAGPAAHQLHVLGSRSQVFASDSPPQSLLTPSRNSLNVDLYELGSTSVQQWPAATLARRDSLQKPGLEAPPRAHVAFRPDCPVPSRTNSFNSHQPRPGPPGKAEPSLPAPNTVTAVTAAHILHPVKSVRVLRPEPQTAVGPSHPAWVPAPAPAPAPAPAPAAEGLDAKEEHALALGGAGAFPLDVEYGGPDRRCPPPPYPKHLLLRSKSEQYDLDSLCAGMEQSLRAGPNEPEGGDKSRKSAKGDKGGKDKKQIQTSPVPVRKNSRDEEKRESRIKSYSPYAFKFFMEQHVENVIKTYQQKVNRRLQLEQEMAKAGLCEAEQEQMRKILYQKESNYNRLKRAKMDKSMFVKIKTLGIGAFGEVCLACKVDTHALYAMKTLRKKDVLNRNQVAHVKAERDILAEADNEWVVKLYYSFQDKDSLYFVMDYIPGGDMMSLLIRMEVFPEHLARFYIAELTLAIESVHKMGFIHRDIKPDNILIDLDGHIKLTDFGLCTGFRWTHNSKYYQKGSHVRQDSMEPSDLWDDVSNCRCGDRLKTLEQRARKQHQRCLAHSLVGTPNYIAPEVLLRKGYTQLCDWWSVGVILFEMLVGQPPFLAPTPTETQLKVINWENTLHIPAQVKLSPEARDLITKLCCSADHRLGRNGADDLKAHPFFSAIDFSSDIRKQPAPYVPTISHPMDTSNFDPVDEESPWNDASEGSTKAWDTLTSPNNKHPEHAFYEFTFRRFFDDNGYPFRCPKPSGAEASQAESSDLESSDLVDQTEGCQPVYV
Chain of Phosphatidylinositol 4,5-bisphosphate 3-kinase catalytic subunit gamma isoform (Homo sapiens) (P48736 whole entry, looked up, canonical isoform): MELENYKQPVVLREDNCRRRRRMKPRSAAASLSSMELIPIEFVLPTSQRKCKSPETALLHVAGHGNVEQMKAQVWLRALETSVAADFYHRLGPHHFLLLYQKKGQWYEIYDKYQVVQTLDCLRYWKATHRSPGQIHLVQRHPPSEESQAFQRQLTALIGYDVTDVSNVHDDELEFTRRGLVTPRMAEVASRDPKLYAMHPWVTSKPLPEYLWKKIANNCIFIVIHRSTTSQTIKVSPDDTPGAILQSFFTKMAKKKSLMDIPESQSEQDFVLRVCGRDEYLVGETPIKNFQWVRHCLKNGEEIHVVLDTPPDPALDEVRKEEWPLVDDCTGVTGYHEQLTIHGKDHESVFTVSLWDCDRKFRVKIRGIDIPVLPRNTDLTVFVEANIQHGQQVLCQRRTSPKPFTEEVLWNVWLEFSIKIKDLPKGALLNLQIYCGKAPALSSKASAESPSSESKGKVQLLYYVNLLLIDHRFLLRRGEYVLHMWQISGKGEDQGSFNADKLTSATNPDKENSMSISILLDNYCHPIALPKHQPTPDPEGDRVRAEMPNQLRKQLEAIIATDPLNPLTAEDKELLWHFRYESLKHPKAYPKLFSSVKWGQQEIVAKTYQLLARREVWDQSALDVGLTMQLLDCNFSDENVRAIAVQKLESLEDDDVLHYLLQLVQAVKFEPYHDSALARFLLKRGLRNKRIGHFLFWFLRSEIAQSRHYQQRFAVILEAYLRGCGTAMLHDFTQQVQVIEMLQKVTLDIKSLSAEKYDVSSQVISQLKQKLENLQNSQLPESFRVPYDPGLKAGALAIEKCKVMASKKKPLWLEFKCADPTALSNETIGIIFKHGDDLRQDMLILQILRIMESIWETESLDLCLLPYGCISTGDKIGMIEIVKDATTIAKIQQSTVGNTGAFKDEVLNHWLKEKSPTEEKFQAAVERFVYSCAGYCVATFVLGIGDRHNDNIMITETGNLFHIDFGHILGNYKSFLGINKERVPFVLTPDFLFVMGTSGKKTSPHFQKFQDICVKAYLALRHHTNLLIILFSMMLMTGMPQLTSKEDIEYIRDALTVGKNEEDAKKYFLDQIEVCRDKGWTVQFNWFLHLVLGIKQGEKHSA
Chain of Cyclin-dependent kinase 4 (Homo sapiens) (P11802 whole entry): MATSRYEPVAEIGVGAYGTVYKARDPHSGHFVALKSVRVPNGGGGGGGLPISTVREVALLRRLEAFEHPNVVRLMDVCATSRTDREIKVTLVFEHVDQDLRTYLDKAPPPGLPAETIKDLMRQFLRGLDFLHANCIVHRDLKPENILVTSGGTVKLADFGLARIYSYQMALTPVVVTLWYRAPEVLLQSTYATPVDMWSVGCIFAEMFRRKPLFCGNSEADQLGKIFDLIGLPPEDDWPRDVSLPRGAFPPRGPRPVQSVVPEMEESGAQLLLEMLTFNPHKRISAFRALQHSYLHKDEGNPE

## CN(C)c1ncnc(-c2ccc3nc(Nc4cc(CN5CCN(C(=O)CC(F)(F)F)CC5)ccn4)[nH]c3c2)c1Cl [BAY-440]
[1]; [46]
  residual activity: 63%
[2]; [46]
  residual activity: 70%
[3]; [46]
  residual activity: 76%
[4]; [46]
  residual activity: 82%
[5]; [46]
  residual activity: 100%
[6]; [46]
  residual activity: 90%
[7]; [46]
  residual activity: 61%
[8]; [46]
  residual activity: 59%
[9]; [46]
  residual activity: 100%
[10]; [46]
  residual activity: 100%
[11]
  inhibition: -2.29%
[12]
  inhibition: 13.9%
[13]; [46]
  residual activity: 94%
[14]; [46]
  residual activity: 37%
[15]; [46]
  residual activity: 97%
[16]; [46]
  residual activity: 83%
[17]; [46]
  residual activity: 28%
[18]; [46]
  residual activity: 75%
[19]; [46]
  residual activity: 87%
[20]; [46]
  residual activity: 100%
[21]; [46]
  residual activity: 91%
[22]; [46]
  residual activity: 100%
[23]; [46]
  residual activity: 100%
[24]; [46]
  residual activity: 90%
[25]
  inhibition: 23.9%
[26]; [46]
  residual activity: 72%
[27]
  inhibition: 4.51%
[28]; [46]
  residual activity: 56%
[29]; [46]
  residual activity: 71%
[30]; [46]
  residual activity: 95%
[31]; [46]
  residual activity: 74%
[32]; [46]
  residual activity: 70%
[33]; [46]
  residual activity: 53%
[34]; [46]
  residual activity: 67%
[35]; [46]
  residual activity: 85%
[36]; [46]
  residual activity: 100%
[37]; [46]
  residual activity: 100%
[38]; [46]
  residual activity: 75%
[39]; [46]
  residual activity: 85%
[40]; [46]
  residual activity: 71%
[41]; [46]
  residual activity: 100%
[42]; [46]
  residual activity: 61%
[43]; [46]
  residual activity: 100%
[44]; [46]
  residual activity: 13%
[45]; [46]
  residual activity: 72%

## C[C@H](c1ccnc(Nc2nc3ccc(-c4cc(N(C)C)ncn4)cc3[nH]2)c1)N1CCN(C(=O)CC(F)(F)F)CC1 [BAY-985]
[1]; [47]
  residual activity: 98%
[2]; [47]
  residual activity: 93%
[3]; [47]
  residual activity: 100%
[4]; [47]
  residual activity: 95%
[5]; [47]
  residual activity: 100%
[6]; [47]
  residual activity: 96%
[7]; [47]
  residual activity: 100%
[8]; [47]
  residual activity: 79%
[9]; [47]
  residual activity: 86%
[10]; [47]
  residual activity: 96%
[11]
  inhibition: -0.75%
[12]
  inhibition: -2.73%
[13]; [47]
  residual activity: 94%
[14]; [47]
  residual activity: 91%
[15]; [47]
  residual activity: 87%
[16]; [47]
  residual activity: 100%
[17]; [47]
  residual activity: 100%
[18]; [47]
  residual activity: 97%
[19]; [47]
  residual activity: 100%
[20]; [47]
  residual activity: 100%
[21]; [47]
  residual activity: 100%
[22]; [47]
  residual activity: 95%
[23]; [47]
  residual activity: 96%
[24]; [47]
  residual activity: 64%
[25]
  inhibition: -8.4%
[26]; [47]
  residual activity: 100%
[27]
  inhibition: 2.95%
[28]; [47]
  residual activity: 84%
[29]; [47]
  residual activity: 100%
[30]; [47]
  residual activity: 96%
[31]; [47]
  residual activity: 100%
[32]; [47]
  residual activity: 89%
[33]; [47]
  residual activity: 80%
[34]; [47]
  residual activity: 100%
[35]; [47]
  residual activity: 60%
[36]; [47]
  residual activity: 100%
[37]; [47]
  residual activity: 92%
[38]; [47]
  residual activity: 83%
[39]; [47]
  residual activity: 95%
[40]; [47]
  residual activity: 90%
[41]; [47]
  residual activity: 100%
[42]; [47]
  residual activity: 100%
[43]; [47]
  residual activity: 100%
[44]; [47]
  residual activity: 9.9%
[45]; [47]
  residual activity: 100%
